Experimental findings from patent US20260124197A1, “NOVEL HETEROBICYCLIC COMPOUND FOR INHIBITING YAP-TEAD INTERACTION AND PHARMACEUTICAL COMPOSITION COMPRISING SAME” (priority 2022, published 2026) are described below.

Where only a bound is given, the exact number is not on record here.

The subject of experiment [1] is TEAD transcriptional activity. Nature of the experiment: TEAD reporter activity inhibition test (luciferase reporter, MCF7 cell line). Type of experiment: cell-based. Conditions: Homo sapiens; TEAD (GTIIC) firefly luciferase reporter MCF7 cell line, 24 hours, ONE-Glo luminescence. How it is done:
Experimental Example 1: TEAD Reporter Activity Inhibition Test
The ability of the synthetic compounds to inhibit TEAD target gene transcription was measured. This evaluation method measures the transcriptional activity of TEAD by measuring the luciferase luminescence expressed when TEAD binds to a target gene and activates transcription using the MCF7 cell line (BPS Bioscience, Inc., USA) in which a firefly luciferase reporter gene has been introduced into the specific binding structure of TEAD, GTIIC (5′-ACATTCCA-3′). Cell lines were cultured in MEM medium added with 10% FBS, 1% Penicillin/Streptomycin, 1% non-essential amino acids, 10 μg/ml insulin, and 400 μg/ml Geneticin, and Geneticin was excluded when testing for inhibition of TEAD reporter activity. […] cells/100 μl were dispensed into a white 96-well plate and cultured for 6 hours. 50 μl of the test compound diluted to 3× concentration was mixed into each well. After 24 hours of cell culture, the luciferase signal was measured by luminescence using the ONE-Glo luciferase assay system (Promega, E6120) following the manufacturer's protocol. The 50% inhibition value (IC50) for TEAD transcriptional activity was calculated using GraphPad Prism 9.
If the IC50 value is less than 100 nM, it is indicated as A, if it is at least 100 nM but less than 500 nM, it is indicated as B, and if it is 500 nM or more, it is indicated as C.
In general terms: A reporter such as luciferase makes a cellular process visible.

In a further experiment the test system is NCI-H226 cells. Nature of the experiment: Cell growth inhibition test (SRB). To be noted: Homo sapiens, 144 h; NCI-H226 mesothelioma cell line lacking the NF2 gene, cultured for 6 days, SRB test method. Type of experiment: cell-based. How it is done:
Experimental Example 2: Cell Growth Inhibition Test
The synthetic compound was confirmed to inhibit cell growth in NCI-H226 cells. NCI-H226 is a mesothelioma cancer cell line lacking the NF2 gene, and was cultured in RPMI 1640 medium supplemented added with 10% FBS and 1% Penicillin/Streptomycin. Cultured cells were dispensed into 96-well plates at 0.7×10^3 cells/100 μl and cultured for 24 hours, then 100 μl of the test compound diluted to a 2× concentration were mixed into each well and cultured for 6 days. The SRB test method was used to measure cell growth inhibition, and the 50% inhibition value (GI50) for cell growth by the compound was calculated using GraphPad Prism 9.
If the GI50 value is less than 100 nM, it is indicated as A, and if it is 100 nM or more, it is indicated as B.
(In general: Sulforhodamine B stains cellular protein and so reports cell mass.)

`CNS(=O)(=O)c1ccc2c(c1)c(-c1cn(C3CC3)cn1)nn2-c1ccc(C(F)(F)F)cc1` [Example 44, 3-(1-cyclopropyl-1H-imidazol-4-yl)-N-methyl-1-(4-(trifluoromethyl)phenyl)-1H-indazol-5-sulfonamide] had an IC50 in experiment [1] of less than 100 nM. Further, the GI50 in the experiment with NCI-H226 cells was less than 100 nM.
`CNS(=O)(=O)c1ccc2c(c1)c(-c1ccccn1)cn2-c1ccc(C(F)(F)F)cc1` [Example 8, N-methyl-3-(pyridin-2-yl)-1-(4-(trifluoromethyl)phenyl)-1H-indole-5-sulfonamide] returned an IC50 in experiment [1] of less than 100 nM. Further, the GI50 in the experiment on NCI-H226 cells was less than 100 nM.
Turning to `CCn1cnc(-c2cn(-c3ccc(C(F)(F)F)cc3)c3ccc(S(=O)(=O)NC)cc23)c1` [Example 11, 3-(1-ethyl-1H-imidazol-4-yl)-N-methyl-1-(4-(trifluoromethyl)phenyl)-1H-indole-5-sulfonamide], in experiment [1], the IC50 was less than 100 nM. In the experiment on NCI-H226 cells, the GI50 is less than 100 nM.
As to `CNS(=O)(=O)c1cnc2c(c1)c(-c1cn(C3CC3)cn1)cn2-c1ccc(C(F)(F)F)cc1` [Example 43, 3-(1-cyclopropyl-1H-imidazol-4-yl)-N-methyl-1-(4-(trifluoromethyl)phenyl)-1H-pyrrolo[2,3-b]pyridine-5-sulfonamide], in experiment [1], the IC50 was less than 100 nM. The GI50 in the experiment with NCI-H226 cells is less than 100 nM.
Regarding `CNS(=O)(=O)c1ccc2c(c1)c(-c1cn(C)cn1)cn2-c1ccc(C(F)(F)F)cc1` [Example 2, N-methyl-3-(1-methyl-1H-imidazol-4-yl)-1-(4-(trifluoromethyl)phenyl)-1H-indole-5-sulfonamide], the IC50 in experiment [1] was less than 100 nM. Further, the GI50 in the experiment with NCI-H226 cells is less than 100 nM.
`CNS(=O)(=O)c1ccc2c(c1)c(-c1ccoc1)cn2-c1ccc(C(F)(F)F)cc1` [Example 23, 3-(furan-3-yl)-N-methyl-1-(4-(trifluoromethyl)phenyl)-1H-indole-5-sulfonamide] yielded an IC50 in experiment [1] of less than 100 nM. For the same compound, in the experiment with NCI-H226 cells, the GI50 was less than 100 nM.
As for `CNS(=O)(=O)c1ccc2c(c1)c(-c1ccco1)cn2-c1ccc(C(F)(F)F)cc1` [Example 31, 3-(furan-2-yl)-N-methyl-1-(4-(trifluoromethyl)phenyl)-1H-indole-5-sulfonamide], the IC50 in experiment [1] was less than 100 nM. Moreover, the GI50 with NCI-H226 cells was less than 100 nM.
In turn, `CNS(=O)(=O)c1ccc2c(c1)c(-c1cn(C3CCC3)cn1)cn2-c1ccc(C(F)(F)F)cc1` [Example 16] returned a 50% inhibitory concentration (IC50) in experiment [1] of less than 100 nM. In addition, the GI50 with NCI-H226 cells is less than 100 nM.
In turn, `CNS(=O)(=O)c1ccc2c(c1)c(-c1ccccc1F)cn2-c1ccc(C(F)(F)F)cc1` [Example 13, 3-(2-fluorophenyl)-N-methyl-1-(4-(trifluoromethyl)phenyl)-1H-indole-5-sulfonamide] showed an IC50 in experiment [1] of less than 100 nM. The compound further displayed a GI50 in the experiment on NCI-H226 cells of no less than 100 nM.
`CNS(=O)(=O)c1ccc2c(c1)c(-c1cn(C3CC3)cn1)cn2-c1ccc(C(F)(F)F)cc1F` [Example 42, 3-(1-cyclopropyl-1H-imidazol-4-yl)-1-(2-fluoro-4-(trifluoromethyl)phenyl)-N-methyl-1H-indole-5-sulfonamide]: the IC50 in experiment [1] is less than 100 nM. In addition, in the experiment with NCI-H226 cells, the 50% growth inhibitory concentration (GI50) was less than 100 nM.
For the compound `CNS(=O)(=O)c1ccc2c(c1)c(-c1ccc(C)o1)cn2-c1ccc(C(F)(F)F)cc1` [Example 10, N-methyl-3-(5-methylfuran-2-yl)-1-(4-(trifluoromethyl)phenyl)-1H-indole-5-sulfonamide], the IC50 in experiment [1] was less than 100 nM. In the experiment with NCI-H226 cells, this compound came in with a GI50 of less than 100 nM.
In experiment [1], `CNS(=O)(=O)c1ccc2c(c1)c(-c1ncccc1F)cn2-c1ccc(C(F)(F)F)cc1` [Example 20, 3-(3-fluoropyridin-2-yl)-N-methyl-1-(4-(trifluoromethyl)phenyl)-1H-indole-5-sulfonamide] had an IC50 of less than 100 nM. This compound came in with a GI50 in the experiment on NCI-H226 cells of less than 100 nM.
Compound `CNS(=O)(=O)c1ccc2c(c1)c(-c1cn(C3CC3)cn1)cn2-c1ccc(C(F)(F)F)cc1` [Example 28, 3-(1-cyclopropyl-1H-imidazol-4-yl)-N-methyl-1-(4-(trifluoromethyl)phenyl)-1H-indole-5-sulfonamide] gave a half-inhibitory concentration (IC50) in experiment [1] of less than 100 nM. Further, the GI50 with NCI-H226 cells was less than 100 nM.
`CNS(=O)(=O)c1ccc2c(c1)c(-c1cnc(C)o1)cn2-c1ccc(C(F)(F)F)cc1` [Example 32, N-methyl-3-(2-methyloxazol-5-yl)-1-(4-(trifluoromethyl)phenyl)-1H-indole-5-sulfonamide] had a half-maximal inhibitory concentration (IC50) in experiment [1] of less than 100 nM. In the experiment with NCI-H226 cells, this compound came in with a GI50 of less than 100 nM.
In the case of `CNS(=O)(=O)c1ccc2c(c1)c(-c1ccc(C)s1)cn2-c1ccc(C(F)(F)F)cc1` [Example 9, N-methyl-3-(5-methylthiophen-2-yl)-1-(4-(trifluoromethyl)phenyl)-1H-indole-5-sulfonamide], in experiment [1], the half-maximal inhibitory concentration (IC50) lay within 100 to 500 nM.
In experiment [1], `CNS(=O)(=O)c1ccc2c(c1)c(-c1cn(CCOC)cn1)cn2-c1ccc(C(F)(F)F)cc1` [Example 38, 3-(1-(2-methoxyethyl)-1H-imidazol-4-yl)-N-methyl-1-(4-(trifluoromethyl)phenyl)-1H-indole-5-sulfonamide] displayed an IC50 of less than 100 nM. Also, in the experiment with NCI-H226 cells, the GI50 was less than 100 nM.

What is called IC50 is the concentration that gives 50% inhibition. Lower therefore signals greater potency in that assay. The GI50 is the concentration at which growth is held to half of that of the control. A higher GI50 goes with less potent growth inhibition.
